# Active and inactive are the calls of the source. The rule behind the calls is not given here.
# Legend:
# HCT-116 [1] = assay: Cytotoxicity against human HCT116 cells after 24 hrs by MTT assay; assay type: functional; conditions: HCT-116, 24 h, read-out: LC50 (the source's name)
# HL-60 [2] = assay: Cytotoxicity against human HL60 cells after 24 hrs by WST-1 assay; assay type: functional; conditions: HL-60, 24 h, read-out: LC50 (the source's name)
# HL-60 [3] = assay: Induction of apoptosis in human HL60 cells assessed as DNA fragmentation at 10 uM after 6 hrs by electrophoretic analysis; assay type: functional, cell-based
# HL-60 [4] = assay: Induction of apoptosis in human HL60 cells assessed as caspase-3 activation at 10 uM after 4 hrs by FACS flow cytometric analysis; assay type: functional, cell-based
# HCT-116 [5] = assay: Cytotoxicity against human HCT116 cells at >2.5 uM after 24 hrs by MTT assay; assay type: functional, cell-based
# HL-60 [6] = assay: Cytotoxicity against human HL60 cells at 5 uM after 24 hrs by WST-1 assay; assay type: functional, cell-based
SMILES,CC50 (HCT-116 [1]) [µM],CC50 (HL-60 [2]) [µM],Activity (HL-60 [3]),Activity (HL-60 [4]),Activity (HCT-116 [5]),Activity (HL-60 [6])
Oc1cc2ccccc2c2ccccc12,> 10,> 10,,,,
"O=C1C(=O)c2ccccc2-c2ccccc21 [9,10-PHENANTHRENEQUINONE]",1.43,3.38,Active,Active,Active,Active
O=C1C(=O)c2cccc3cccc1c23 [ACENAPHTHOQUINONE],> 10,> 10,,,,
O=c1c(=O)c2cccc3ccc4cccc1c4c32,0.86,3.41,Active,Active,,
"O=C1C=Cc2ccccc2C1=O [1,2-NAPHTHOQUINONE]",9.2,7.14,,,,
O=C(C(=O)c1ccccc1)c1ccccc1 [BENZIL],> 10,> 10,,,,
c1ccc2c(c1)CCc1ccccc1-2 [DIHYDROPHENANTHRENE],> 10,> 10,,,,
O=C1C(=O)c2cccnc2-c2ncccc21,0.73,1.57,Active,Active,,
O=c1[nH]c2ccccc2c2ccccc12,> 10,> 10,,,,
c1ccc2c(c1)ccc1ccccc12 [PHENANTHRENE],> 10,> 10,,,,

# — ChEMBL document CHEMBL2407091, “Effect of the orthoquinone moiety in 9,10-phenanthrenequinone on its ability to induce apoptosis in HCT-116 and HL-60 cells” (2013)
